Source: BigSolDB 2.1

CC1(C)C[C@@H]1C(N)=O
Settings | solubility (mole fraction)
in chloroform, 286.26 K | 0.0357
in chloroform, 293.65 K | 0.0395
in chloroform, 296.64 K | 0.0429
in chloroform, 300.25 K | 0.0484
in chloroform, 303.47 K | 0.0529
in chloroform, 308.04 K | 0.0596
in chloroform, 310.96 K | 0.0665
in chloroform, 314.18 K | 0.0699
in chloroform, 317.45 K | 0.0789
in chloroform, 321.27 K | 0.0902
in dichloromethane, 288.72 K | 0.0152
in dichloromethane, 292.45 K | 0.0177
in dichloromethane, 296.11 K | 0.0205
in dichloromethane, 298.74 K | 0.0233
in dichloromethane, 300.83 K | 0.0248
in dichloromethane, 302.2 K | 0.0268
in dichloromethane, 304.6 K | 0.0301
in dichloromethane, 306.27 K | 0.0321
in dichloromethane, 309.29 K | 0.0367
in ethanol, 290.04 K | 0.089
in ethanol, 293.28 K | 0.0945
in ethanol, 296.81 K | 0.101
in ethanol, 299.25 K | 0.107
in ethanol, 302.71 K | 0.116
in ethanol, 306.04 K | 0.123
in ethanol, 309.67 K | 0.134
in ethanol, 313.53 K | 0.148
in ethanol, 318.09 K | 0.163
in ethyl acetate, 288.96 K | 0.0169
in ethyl acetate, 290 K | 0.0205
in ethyl acetate, 294.53 K | 0.0279
in ethyl acetate, 301.16 K | 0.0357
in ethyl acetate, 305.88 K | 0.0409
in ethyl acetate, 311 K | 0.0483
in ethyl acetate, 316.3 K | 0.0557
in ethyl acetate, 323.65 K | 0.0787
in ethyl acetate, 328.41 K | 0.0912
in toluene, 288.7 K | 0.00221
in toluene, 302.9 K | 0.004
in toluene, 311.23 K | 0.00599
in toluene, 318.11 K | 0.00858
in toluene, 324.07 K | 0.011
in toluene, 328.47 K | 0.0137
in toluene, 332.43 K | 0.016
in toluene, 338.07 K | 0.0219
in toluene, 342.25 K | 0.0259
in toluene, 348.06 K | 0.035
in water, 294.8 K | 0.00374
in water, 308.15 K | 0.00499
in water, 314.67 K | 0.00583
in water, 327.39 K | 0.00716
in water, 331.7 K | 0.00917
in water, 336.08 K | 0.0115
in water, 340.86 K | 0.0146
in water, 345.84 K | 0.0177
in water, 353.93 K | 0.026
